Laboratory results published in patent US11771709B2, “ALK protein degradation agent and anti-tumor application thereof” (ShanghaiTech University, priority 2017, dated 2023).

What was measured:
SR (NPM-ALK) cells = assay: Growth inhibition IC50 in ALCL SR cells (CCK8/WST, 72 hours); format: cell-based; settings: SR cells, WST
[1] = molecular target: T1, ALK protein in H3122 (EML4-ALK) cells (Homo sapiens, UniProt Q9UM73); assay: Western blot of ALK protein level (degradation, DC50), ALK phosphorylation and downstream signaling in H3122 cells; format: cell-based; settings: for DC50: ALK protein degradation in H3122 cells; for phosphorylation of AKT and ERK / ALK protein level / degradation: H3122 cells, western blot; for ALK protein level / degradation: up to 500 nM
T1 construct: EML4 (Echinoderm microtubule-associated protein-like 4, Q9HC35) fusion partner, variant 1; host or cells: NCI-H3122 lung adenocarcinoma cells; the other entry of the earlier key: EML4 (Q9HC35, Echinoderm microtubule-associated protein-like 4)

[2] = 72 h, Brigatinib-based PROTAD molecules (Table 3)
[3] = Alectinib based ALK PROTAD compounds (Table 4)

T1 sequence (Q9UM73 with tags, fused parts or gaps): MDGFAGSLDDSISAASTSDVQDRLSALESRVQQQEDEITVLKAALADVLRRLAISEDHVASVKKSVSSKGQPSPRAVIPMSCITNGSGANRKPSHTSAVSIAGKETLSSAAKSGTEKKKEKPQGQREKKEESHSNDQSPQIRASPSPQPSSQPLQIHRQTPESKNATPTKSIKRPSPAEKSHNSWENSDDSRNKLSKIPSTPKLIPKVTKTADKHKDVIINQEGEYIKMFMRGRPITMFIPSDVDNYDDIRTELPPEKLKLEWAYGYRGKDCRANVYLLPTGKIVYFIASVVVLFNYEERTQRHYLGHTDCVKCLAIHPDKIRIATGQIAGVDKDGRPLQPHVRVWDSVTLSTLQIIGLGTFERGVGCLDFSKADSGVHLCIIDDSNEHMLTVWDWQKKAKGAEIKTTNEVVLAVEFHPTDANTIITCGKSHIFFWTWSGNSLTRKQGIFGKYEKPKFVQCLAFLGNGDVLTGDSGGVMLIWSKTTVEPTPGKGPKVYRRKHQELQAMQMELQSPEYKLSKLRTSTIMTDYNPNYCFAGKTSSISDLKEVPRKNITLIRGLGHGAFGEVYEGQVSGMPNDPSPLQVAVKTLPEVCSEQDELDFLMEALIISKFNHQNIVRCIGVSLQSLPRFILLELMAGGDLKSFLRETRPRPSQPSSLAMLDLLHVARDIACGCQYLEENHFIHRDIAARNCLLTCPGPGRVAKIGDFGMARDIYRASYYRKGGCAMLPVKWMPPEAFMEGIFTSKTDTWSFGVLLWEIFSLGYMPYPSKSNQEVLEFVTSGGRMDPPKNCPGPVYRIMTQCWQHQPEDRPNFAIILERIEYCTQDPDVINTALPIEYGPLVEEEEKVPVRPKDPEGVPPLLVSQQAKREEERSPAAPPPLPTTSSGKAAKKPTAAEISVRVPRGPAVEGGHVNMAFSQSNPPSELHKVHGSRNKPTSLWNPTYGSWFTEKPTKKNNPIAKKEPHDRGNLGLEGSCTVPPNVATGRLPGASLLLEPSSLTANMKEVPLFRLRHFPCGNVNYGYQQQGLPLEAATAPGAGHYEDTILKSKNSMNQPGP

Row | DC50 [1] | phosphorylation of AKT and ERK [1] | ALK protein level / degradation [1] | SMILES | IC50 (SR (NPM-ALK) cells; [2]) | IC50 (SR (NPM-ALK) cells; [3])
1 | 100 to 500 nM | – | – | COc1cc(N2CCC(NC(=O)CCCCNc3cccc4c3C(=O)N(C3CCC(=O)NC3=O)C4=O)CC2)ccc1Nc1ncc(Cl)c(Nc2ccccc2P(C)(C)=O)n1 (stereo not drawn) [SIAIS151119, N-(1-(4-((5-chloro-4-((2-(dimethylphosphoryl)phenyl)amino)pyrimidin-2-yl)amino)-3-methoxyphenyl)piperidin-4-yl)-5-((2-(2,6-dioxopiperidin-3-yl)-1,3-dioxoisoindolin-4-yl)amino)pentanamide] | 1.6 ± 1 nM | –
2 | 20 to 100 nM | – | – | COc1cc(N2CCC(NC(=O)CNc3cccc4c3C(=O)N(C3CCC(=O)NC3=O)C4=O)CC2)ccc1Nc1ncc(Cl)c(Nc2ccccc2P(C)(C)=O)n1 (stereo not drawn) [SIAIS151120, N-(1-(4-((5-chloro-4-((2-(dimethylphosphoryl)phenyl)amino)pyrimidin-2-yl)amino)-3-methoxyphenyl)piperidin-4-yl)-2-((2-(2,6-dioxopiperidin-3-yl)-1,3-dioxoisoindolin-4-yl)amino)acetamide] | 11.4 ± 7.8 nM | –
3 | 100 to 500 nM | – | – | COc1cc(N2CCC(NC(=O)CCNc3cccc4c3C(=O)N(C3CCC(=O)NC3=O)C4=O)CC2)ccc1Nc1ncc(Cl)c(Nc2ccccc2P(C)(C)=O)n1 (stereo not drawn) [SIAIS151121, N-(1-(4-((5-chloro-4-((2-(dimethylphosphoryl)phenyl)amino)pyrimidin-2-yl)amino)-3-methoxyphenyl)piperidin-4-yl)-3-((2-(2,6-dioxopiperidin-3-yl)-1,3-dioxoisoindolin-4-yl)amino)propenamide] | 20.4 ± 8.5 nM | –
4 | 100 to 500 nM | – | – | COc1cc(N2CCC(NC(=O)CCOCCOCCC(=O)N[C@H](C(=O)N3C[C@H](O)C[C@H]3C(=O)NCc3ccc(-c4scnc4C)cc3)C(C)(C)C)CC2)ccc1Nc1ncc(Cl)c(Nc2ccccc2P(C)(C)=O)n1 [SIAIS151124, (2S,4R)-1-((S)-2-(3-(2-(3-((1-(4-((5-chloro-4-((2-(dimethylphosphoryl)phenyl)amino)pyrimidin-2-yl)amino)-3-methoxyphenyl)piperidin-4-yl)amino)-3-oxopropoxy)ethoxy)propanamido)-3,3-dimethylbutanoyl)-4-hydroxy-N-(4-(4-methylthiazol-5-yl)benzyl)pyrrolidine-2-carboxamide] | 76.9 ± 15.9 nM | –
5 | 100 to 500 nM | – | – | COc1cc(N2CCC(NC(=O)CCOCCOCCOCCC(=O)N[C@H](C(=O)N3C[C@H](O)C[C@H]3C(=O)NCc3ccc(-c4scnc4C)cc3)C(C)(C)C)CC2)ccc1Nc1ncc(Cl)c(Nc2ccccc2P(C)(C)=O)n1 [SIAIS151125, (2S,4R)-1-((S)-2-(tert-butyl)-16-((1-(4-((5-chloro-4-((2-(dimethylphosphoryl)phenyl)amino)pyrimidin-2-yl)amino)-3-methoxyphenyl)piperidin-4-yl)amino)-4,16-dioxo-7,10,13-trioxa-3-azahexadecanoyl)-4-hydroxy-N-(4-(4-methylthiazol-5-yl)benzyl)pyrrolidine-2-carboxamide] | 61.9 ± 30.5 nM | –
6 | 100 to 500 nM | – | – | COc1cc(N2CCC(NC(=O)COCCOCC(=O)N[C@H](C(=O)N3C[C@H](O)C[C@H]3C(=O)NCc3ccc(-c4scnc4C)cc3)C(C)(C)C)CC2)ccc1Nc1ncc(Cl)c(Nc2ccccc2P(C)(C)=O)n1 [SIAIS151128, (2S,4R)-1-((S)-2-(2-(2-(2-((1-(4-((5-chloro-4-((2-(dimethylphosphoryl)phenyl)amino)pyrimidin-2-yl)amino)-3-methoxyphenyl)piperidin-4-yl)amino)-2-oxoethoxy)ethoxy)acetamido)-3,3-dimethylbutanoyl)-4-hydroxy-N-(4-(4-methylthiazol-5-yl)benzyl)pyrrolidine-2-carboxamide] | 6.3 ± 0.2 nM | –
7 | 1 to 50 nM | – | – | COc1cc(N2CCC(NC(=O)CCC(=O)NCCNc3cccc4c3C(=O)N(C3CCC(=O)NC3=O)C4=O)CC2)ccc1Nc1ncc(Cl)c(Nc2ccccc2P(C)(C)=O)n1 (stereo not drawn) [SIAIS164157, N1-(1-(4-((5-chloro-4-((2-(dimethylphosphoryl)phenyl)amino)pyrimidin-2-yl)amino)-3-methoxyphenyl)piperidin-4-yl)-N4-(2-((2-(2,6-dioxopiperidin-3-yl)-1,3-dioxoisoindolin-4-yl)amino)ethyl)succinamide] | 15.7 ± 15 nM | –

Second part, the molecule before the results:

Row | SMILES | DC50 [1] | phosphorylation of AKT and ERK [1] | ALK protein level / degradation [1] | IC50 (SR (NPM-ALK) cells; [2]) | IC50 (SR (NPM-ALK) cells; [3])
8 | COc1cc(N2CCC(NC(=O)CCOCCOCCOCCOCCC(=O)N[C@H](C(=O)N3C[C@H](O)C[C@H]3C(=O)NCc3ccc(-c4scnc4C)cc3)C(C)(C)C)CC2)ccc1Nc1ncc(Cl)c(Nc2ccccc2P(C)(C)=O)n1 [SIAIS151126, N1-(1-(4-((5-chloro-4-((2-(dimethylphosphoryl)phenyl)amino)pyrimidin-2-yl)amino)-3-methoxyphenyl)piperidin-4-yl)-N16-((S)-1-((2S,4R)-4-hydroxy-2-((4-(4-methylthiazol-5-yl)benzyl)carbamoyl)pyrrolidin-1-yl)-3,3-dimethyl-1-oxobutan-2-yl)-4,7,10,13-tetraoxahexadecanediamide] | 100 to 500 nM | – | – | 31.9 ± 11.9 nM | –
9 | COc1cc(N2CCC(NC(=O)CCOCCOCCOCCOCCOCCC(=O)N[C@H](C(=O)N3C[C@H](O)C[C@H]3C(=O)NCc3ccc(-c4scnc4C)cc3)C(C)(C)C)CC2)ccc1Nc1ncc(Cl)c(Nc2ccccc2P(C)(C)=O)n1 [SIAIS151127, N1-(1-(4-((5-chloro-4-((2-(dimethylphosphoryl)phenyl)amino)pyrimidin-2-yl)amino)-3-methoxyphenyl)piperidin-4-yl)-N19-((S)-1-((2S,4R)-4-hydroxy-2-((4-(4-methylthiazol-5-yl)benzyl)carbamoyl)pyrrolidin-1-yl)-3,3-dimethyl-1-oxobutan-2-yl)-4,7,10,13,16-pentaoxanonadecanediamide] | 20 to 100 nM | – | – | 36.4 ± 23.5 nM | –
10 | CCc1cc2c(cc1N1CCN(C(=O)CCOCCOCCOCCOCCNc3cccc4c3C(=O)N(C3CCC(=O)NC3=O)C4=O)CC1)C(C)(C)c1[nH]c3cc(C#N)ccc3c1C2=O (stereo not drawn) [SIAIS164014, 8-(4-(1-((2-(2,6-dioxopiperidin-3-yl)-1,3-dioxoisoindolin-4-yl)amino)-3,6,9,12-tetraoxapentadecan-15-oyl)piperazin-1-yl)-9-ethyl-6,6-dimethyl-11-oxo-6,11-dihydro-5H-benzo[b]carbazole-3-carbonitrile] | 100 to 500 nM | – | – | – | 81 nM
11 | CCc1cc2c(cc1N1CCN(C(=O)CCCNc3cccc4c3C(=O)N(C3CCC(=O)NC3=O)C4=O)CC1)C(C)(C)c1[nH]c3cc(C#N)ccc3c1C2=O (stereo not drawn) [SIAIS164024, 8-(4-(4-((2-(2,6-dioxopiperidin-3-yl)-1,3-dioxoisoindolin-4-yl)amino)butanoyl)piperazin-1-yl)-9-ethyl-6,6-dimethyl-11-oxo-6,11-dihydro-5H-benzo[b]carbazole-3-carbonitrile] | 1 to 10 nM | inhibited | reduced the protein level of ALK protein | – | 35.8 nM
12 | CCc1cc2c(cc1N1CCN(C(=O)CCCCCNc3cccc4c3C(=O)N(C3CCC(=O)NC3=O)C4=O)CC1)C(C)(C)c1[nH]c3cc(C#N)ccc3c1C2=O (stereo not drawn) [SIAIS164026, 8-(4-(6-((2-(2,6-dioxopiperidin-3-yl)-1,3-dioxoisoindolin-4-yl)amino)hexanoyl)piperazin-1-yl)-9-ethyl-6,6-dimethyl-11-oxo-6,11-dihydro-5H-benzo[b]carbazole-3-carbonitrile] | 1 to 10 nM | inhibited | reduced the protein level of ALK protein | – | 148 nM
13 | CCc1cc2c(cc1N1CCN(C(=O)CCOCCOCCC(=O)N[C@H](C(=O)N3C[C@H](O)C[C@H]3C(=O)NCc3ccc(-c4scnc4C)cc3)C(C)(C)C)CC1)C(C)(C)c1[nH]c3cc(C#N)ccc3c1C2=O [SIAIS164036, (2S,4R)-1-((S)-2-(3-(2-(3-(4-(3-cyano-9-ethyl-6,6-dimethyl-11-oxo-6,11-dihydro-5H-benzo[b]carbazol-8-yl)piperazin-1-yl)-3-oxopropoxy)ethoxy)propanamido)-3,3-dimethylbutanoyl)-4-hydroxy-N-(4-(4-methylthiazol-5-yl)benzyl)pyrrolidine-2-carboxamide] | 20 to 100 nM | – | – | – | 132 nM
14 | CCc1cc2c(cc1N1CCN(C(=O)CCCC(=O)N[C@H](C(=O)N3C[C@H](O)C[C@H]3C(=O)NCc3ccc(-c4scnc4C)cc3)C(C)(C)C)CC1)C(C)(C)c1[nH]c3cc(C#N)ccc3c1C2=O [SIAIS164094, (2S,4R)-1-((S)-2-(5-(4-(3-cyano-9-ethyl-6,6-dimethyl-11-oxo-6,11-dihydro-5H-benzo[b]carbazol-8-yl)piperazin-1-yl)-5-oxopentanamido)-3,3-dimethylbutanoyl)-4-hydroxy-N-(4-(4-methylthiazol-5-yl)benzyl)pyrrolidine-2-carboxamide] | 20 to 100 nM | – | – | – | 124 nM
15 | CCc1cc2c(cc1N1CCN(C(=O)CCCc3cn(CCCC(=O)N[C@H](C(=O)N4C[C@H](O)C[C@H]4C(=O)NCc4ccc(-c5scnc5C)cc4)C(C)(C)C)nn3)CC1)C(C)(C)c1[nH]c3cc(C#N)ccc3c1C2=O [SIAIS164155, (2S,4R)-1-((S)-2-(4-(4-(4-(4-(3-cyano-9-ethyl-6,6-dimethyl-11-oxo-6,11-dihydro-5H-benzo[b]carbazol-8-yl)piperazin-1-yl)-4-oxobutyl)-1H-1,2,3-triazol-1-yl)butanamido)-3,3-dimethylbutanoyl)-4-hydroxy-N-(4-(4-methylthiazol-5-yl)benzyl)pyrrolidine-2-carboxamide] | 10 to 50 nM | – | – | – | 104 nM
16 | COc1cc(N2CCN(C(=O)CCOCCOCCC(=O)N[C@H](C(=O)N3C[C@H](O)C[C@H]3C(=O)NCc3ccc(-c4scnc4C)cc3)C(C)(C)C)CC2)ccc1Nc1ncc(Cl)c(Nc2ccccc2P(C)(C)=O)n1 [SIAIS197079, (2S,4R)-1-((S)-2-(3-(2-(3-(4-(4-((5-chloro-4-((2-(dimethylphosphoryl)phenyl)amino)pyrimidin-2-yl)amino)-3-methoxyphenyl)piperazin-1-yl)-3-oxopropoxy)ethoxy)propanamido)-3,3-dimethylbutanoyl)-4-hydroxy-N-(4-(4-methylthiazol-5-yl)benzyl)pyrrolidine-2-carboxamide] | 50 to 500 nM | – | – | 15.9 ± 8.5 nM | –
